Measurements from patent US20220402925A1, “COMPOUNDS AND METHODS FOR THE TREATMENT OF CYSTIC FIBROSIS” (Flatley Discovery Lab, LLC, priority 2019, published 2022).

What follows are molecules tested against T1, F508del CFTR (Homo sapiens, UniProt P13569, DEL508-508) (assay: Equivalent current assay in primary CF airway epithelial cells (Corrector Activity, NAUC normalized to 3 μM VX809)). Settings: NAUC as % of positive control (VX-809).
T1 construct: Primary CF airway epithelial cells were obtained from the UNC Cystic Fibrosis Tissue Procurement and Cell Culture Core; host or cells: primary CF airway epithelial cells
Assay type: cell-based
Protocol: Primary CF airway epithelial cells were obtained from the UNC Cystic Fibrosis Tissue Procurement and Cell Culture Core. The cells are grown at 37° C. in a Heracell 150i incubator using growth media (BEGM, Fischer). Cells were then transferred to differentiation media (airway liquid interface media (ALI) media; Lechner J F and LaVeck M A, J. Tissue Culture Methods 1985, 9: 43-48) for a minimum of 4 weeks on coated Costar transwells. Two days before the assay the mucus on the apical surface of the cells was aspirated after incubating with 200 μL of differentiation media for at least thirty (30) minutes. One day before the assay test compounds were added to the basolateral surface of the cells at various test concentrations dissolved in DMSO. Duplicate wells were prepared giving a n=4 or n=6 protocol.
Cells were treated for 24 hours with various combinations and concentrations of the test articles, reference standard (3 μM VX809, positive control). Compounds stock solutions were prepared in DMSO and diluted 1/1000 into ALI media to their final assay concentration. Cells were treated with combination solutions (2 mL of each dilution) and incubated at 37° C. for 24 h.
For the equivalent current assay, cells on six Transwell (24-well) plates were treated. Each Transwell plate was filled with 200 μl of HBS on the apical surface and 2 ml on the basolateral surface. Plates were placed horizontally in a heated mount at 37° C. and equilibrated for 30 minutes. Resting current was measured for 15 min and then blocked by the apical addition of 5 μM benzamil. After 20 min, CFTR activator (10 μM forskolin) and potentiator (either 1 μM VX-770 or 3 μM FDL176) were added to both the apical and basolateral side to stimulate CFTR. An increase in chloride current is seen as an upward deflection of the trace. After another 60 min, CFTR-172 (a CFTR inhibitor, 20 μM) and/or bumetanide (20 uM) was added to block CFTR mediated chloride current.
The raw data, voltage vs. time and resistance vs. time for the equivalent current assay (sampling interval: 6 minutes) were transferred to Excel (Microsoft Office Professional, version 14.0.7106.5003) for analysis. CFTR specific current was computed from I=V/R (Ohms Law), the average amplitude of the increase in current elicited upon addition forskolin and ending upon addition of the CFTR channel specific blocker CFTR-172. This average is equivalent to the sum of the average forskolin activated and the average VX770-potentiated currents. The average current measured in vehicle (0.1% DMSO) treated cells, IV, was subtracted from the current for the test article, ITA, or from the corrector reference standard VX809 (3 uM, ISTD). For replicate measurements, the averaged vehicle subtracted response for the test article, was normalized to the averaged vehicle subtracted response of the reference corrector VX809 (3 μM).
INSC=(ITA−IV)(ave)/(ISTD−IV)(ave) (Equation 1)
A second endpoint, for the equivalent current assay, evaluated was NAUC, the normalized area under the curve (AUC) measuring the response after addition of forskolin and potentiator to the time point right before the addition of the CFTR inhibitor. The AUC is effectively the average response multiplied by the duration of the response. The AUC of the test article, AUCTA was then corrected by subtracting the average vehicle response, AUCV,ave over the same time range, and normalized as for the inhibitor-sensitive current to the difference of the corrector reference standard VX809 (3 μM VX809r,ave and the vehicle response:
NAUCTA=[AUCTA−AUCV,ave]/[AUCVx809r,ave−AUCV,ave] (Equation 2).
The normalized value for DMSO is 0.0 and for VX-809 alone is 1.0 for both of these equations.
Experiments were run with a minimum of n=4 replicates per concentration. Since the distribution for the ratio of two normal distributions is a Cauchy distribution, the median value must be used for the average and the average deviation must be used for the error of all normalized data. […]

T1 sequence (P13569 with tags, fused parts or gaps DEL508-508): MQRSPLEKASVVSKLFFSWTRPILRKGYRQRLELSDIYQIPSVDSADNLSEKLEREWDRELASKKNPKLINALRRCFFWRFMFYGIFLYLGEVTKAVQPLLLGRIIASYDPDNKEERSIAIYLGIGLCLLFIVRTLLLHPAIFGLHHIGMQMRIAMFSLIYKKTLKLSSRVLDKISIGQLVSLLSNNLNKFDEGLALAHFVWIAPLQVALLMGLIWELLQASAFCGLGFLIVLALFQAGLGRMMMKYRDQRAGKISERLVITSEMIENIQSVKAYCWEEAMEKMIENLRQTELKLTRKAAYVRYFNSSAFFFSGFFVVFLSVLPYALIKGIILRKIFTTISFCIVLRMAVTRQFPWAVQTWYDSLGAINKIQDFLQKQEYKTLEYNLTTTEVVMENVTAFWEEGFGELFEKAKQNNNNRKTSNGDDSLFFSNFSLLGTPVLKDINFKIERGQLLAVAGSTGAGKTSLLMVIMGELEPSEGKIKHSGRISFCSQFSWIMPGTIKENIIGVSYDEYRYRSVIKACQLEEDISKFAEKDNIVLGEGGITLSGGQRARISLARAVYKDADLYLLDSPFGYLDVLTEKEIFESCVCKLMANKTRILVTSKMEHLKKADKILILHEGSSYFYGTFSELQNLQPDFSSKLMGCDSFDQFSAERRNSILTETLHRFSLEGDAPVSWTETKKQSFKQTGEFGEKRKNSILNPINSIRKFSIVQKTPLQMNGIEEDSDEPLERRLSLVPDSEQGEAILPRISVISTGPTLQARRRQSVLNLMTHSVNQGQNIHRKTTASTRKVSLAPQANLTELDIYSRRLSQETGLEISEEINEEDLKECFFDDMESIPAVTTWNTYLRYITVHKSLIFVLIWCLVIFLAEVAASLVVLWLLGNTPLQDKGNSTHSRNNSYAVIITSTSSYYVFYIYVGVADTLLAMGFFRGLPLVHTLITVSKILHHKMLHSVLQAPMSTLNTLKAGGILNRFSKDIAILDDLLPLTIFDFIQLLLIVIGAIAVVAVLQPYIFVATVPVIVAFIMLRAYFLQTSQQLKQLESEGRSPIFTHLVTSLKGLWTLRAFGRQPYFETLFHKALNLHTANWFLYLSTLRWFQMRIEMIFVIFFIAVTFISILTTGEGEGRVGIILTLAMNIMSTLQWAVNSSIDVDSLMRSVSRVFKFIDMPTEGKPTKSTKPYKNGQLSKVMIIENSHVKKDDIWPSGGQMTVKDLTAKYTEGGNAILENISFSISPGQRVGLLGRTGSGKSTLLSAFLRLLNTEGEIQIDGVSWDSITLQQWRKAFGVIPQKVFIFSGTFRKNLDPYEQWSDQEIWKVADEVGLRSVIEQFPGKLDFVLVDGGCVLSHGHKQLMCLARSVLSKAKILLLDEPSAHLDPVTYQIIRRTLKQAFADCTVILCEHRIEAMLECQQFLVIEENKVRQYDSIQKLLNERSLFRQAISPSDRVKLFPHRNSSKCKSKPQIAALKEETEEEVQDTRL

| Structure (SMILES) | Corr Activity (NAUC) |
| --- | --- |
| CCN(C(=O)Cn1nc(-c2cccc(F)c2)c2oc(C3CC3)cc2c1=O)c1ccc2c(c1)OC(F)(F)O2 [Example 229] | +++ (NAUC>70% of positive control) |
| CN(C(=O)Cn1nc(-c2cccc(C#N)c2)c2oc(C(F)F)cc2c1=O)c1ccc2c(c1F)OC(F)(F)O2 [Example 197] | +++ (NAUC>70% of positive control) |
| CN(C(=O)Cn1nc(-c2cccc(C#N)c2)c2oc(CN3CCOCC3)cc2c1=O)c1ccc2c(c1)OC(F)(F)O2 [Example 199] | + (NAUC<40% of positive control) |
| O=C(Cn1nc(-c2ccc(OCC(F)(F)F)c(F)c2)c2[nH]cnc2c1=O)N(c1ccc2c(c1)OC(F)(F)O2)C1CC1 [Example 457] | + (NAUC<40% of positive control) |
| CC(C)n1ncc2cc(-c3nn(CC(=O)N(c4ccc5c(c4)OC(F)(F)O5)C4CC4)c(=O)c4nc[nH]c34)ccc21 [Example 430] | + (NAUC<40% of positive control) |
| Cc1nc2ccc(N(C)C(=O)Cn3nc(-c4cccc(F)c4)c4oc(C(=O)NC(C)C)cc4c3=O)cc2o1 [Example 155] | ++ (NAUC 70-40% of positive control) |
| O=C(Cn1nc(-c2cccc(F)c2)c2occc2c1=O)N1CCCc2c1ccc1c2OC(F)(F)O1 [Example 162] | +++ (NAUC>70% of positive control) |
| CCN(C(=O)Cn1nc(-c2ccc3c(c2)C(C)(C)c2ccccc2-3)c2[nH]cnc2c1=O)c1ccc2c(c1)OC(F)(F)O2 [Example 293] | + (NAUC<40% of positive control) |
| CN(C(=O)Cn1nc(-c2cccc(C#N)c2)c2oc(C(C)(C)O)cc2c1=O)c1ccc2c(c1)OC(F)(F)O2 [Example 204] | +++ (NAUC>70% of positive control) |
| CCN(C(=O)Cn1nc(-c2cc(Cl)cc(Cl)c2)c2oc(C3CCC3)cc2c1=O)c1ccc2c(c1)OC(F)(F)O2 [Example 234] | ++ (NAUC 70-40% of positive control) |
| CCN(C(=O)Cn1nc(-c2ccc(C#N)c(Cl)c2)c2[nH]cnc2c1=O)c1ccc2c(c1)OC(F)(F)O2 [Example 336] | ++ (NAUC 70-40% of positive control) |
| CN(C(=O)Cn1nc(-c2cccc(C#N)c2)c2oc(C3CC3)cc2c1=O)c1ccc2c(c1)OC(F)(F)O2 [Example 220] | ++ (NAUC 70-40% of positive control) |
| CCN(C(=O)Cn1nc(-c2cc(C)cc(OC)c2)c2[nH]cnc2c1=O)c1ccc2c(c1)OC(F)(F)O2 [Example 272] | + (NAUC<40% of positive control) |
| O=C(Cn1nc(-c2ccc(OCC3CC3)c(Cl)c2)c2[nH]cnc2c1=O)N(c1ccc2c(c1)OC(F)(F)O2)C1CC1 [Example 465] | ++ (NAUC 70-40% of positive control) |
| CN(C(=O)Cn1nc(-c2cc(F)cc(C#N)c2)c2[nH]cnc2c1=O)c1ccc2c(c1)OC(F)(F)O2 [Example 216, 2-(7-(3-cyano-5-fluorophenyl)-4-oxo-1,4-dihydro-5H-imidazo[4,5-d]pyridazin-5-yl)-N-(2,2-difluorobenzo[d][1,3]dioxol-5-yl)-N-methylacetamide] | +++ (NAUC>70% of positive control) |
| CCN(C(=O)Cn1nc(-c2cccc(Cl)c2)c2[nH]ncc2c1=O)c1ccc2c(c1)OC(F)(F)O2 [Example 500] | ++ (NAUC 70-40% of positive control) |
| CCN(C(=O)Cn1nc(-c2ccc3ocnc3c2)c2[nH]cnc2c1=O)c1ccc2c(c1)OC(F)(F)O2 [Example 303] | + (NAUC<40% of positive control) |
| CN(C(=O)Cn1nc(-c2cc(F)cc(F)c2)c2occc2c1=O)c1ccc2c(c1)OC(F)(F)O2 [Example 41] | +++ (NAUC>70% of positive control) |
| CCN(C(=O)Cn1nc(-c2cc(C#N)cc(OC)c2)c2oc(C3CC3)cc2c1=O)c1ccc2c(c1)OC(F)(F)O2 [Example 226] | +++ (NAUC>70% of positive control) |
| CCN(C(=O)Cn1nc(-c2cccc(Cl)c2)c2c(c1=O)CCC2)c1ccc2nc(C)oc2c1 [Example 49] | ++ (NAUC 70-40% of positive control) |
| CCN(C(=O)Cn1nc(-c2cccc(C#N)c2)c2oc(C(=O)N3CCCC34CC4)cc2c1=O)c1ccc2c(c1)OC(F)(F)O2 [Example 207] | +++ (NAUC>70% of positive control) |
